Results: patent US9302999B2, “Substituted triazoles as herbicides” (E. I. DU PONT DE NEMOURS AND COMPANY, priority 2012, dated 2016)

Tests used:
Assay type in all cases: in vivo
[1] = test system: panicum, fall (fall panicum Panicum dichotomiflorum); assay: Test F pre-/postemergence: panicum, fall
From the text: (§1) Seeds of plant species selected from corn (Zea mays), soybean (Glycine max), velvetleaf (Abutilon theophrasti), lambsquarters (Chenopodium album), poinsettia, wild (wild poinsettia, Euphorbia heterophylla), pigweed, palmer (palmer pigweed, Amaranthus palmeri), waterhemp (common waterhemp, Amaranthus rudis), surinam grass (Brachiaria decumbens), crabgrass, Brazil (Brazilian crabgrass, Digitaria horizontalis), panicum, fall (fall panicum Panicum dichotomiflorum), crabgrass, large (large crabgrass, Digitaria sanguinalis), foxtail, giant (giant foxtail, Setaria faberii), foxtail, green (green foxtail Setaria viridis), goosegrass (Eleusine indica), ragweed (common ragweed, Ambrosia elatior), barnyardgrass (Echinochloa crus-galli), sandbur (southern sandbur, Cenchrus echinatus), arrowleaf sida (Sida rhombifolia), ryegrass, Italian (Italian ryegrass, Lolium multiflorum), dayflower, VA (Virginia (VA) dayflower, Commelina virginica), field bindweed (Convolvulus arvensis), cocklebur (common cocklebur, Xanthium strumarium), morningglory (Ipomoea coccinea), nightshade (eastern black nightshade, Solanum ptycanthum), kochia (Kochia scoparia), nutsedge, yellow (yellow nutsedge, Cyperus esculentus), johnsongrass (Sorghum halepense), smartweed (ladysthumb smartweed, Polygonum persicaria), and beggarticks (hairy beggarticks, Bidens pilosa), were planted into a silt loam soil and treated preemergence with test chemicals formulated in a non-phytotoxic solvent mixture which included a surfactant. At the same time, plants selected from these crop and weed species and also pigweed (Amaranthus retroflexus), waterhemp_RES1 (ALS/Triazine resistant common waterhemp, Amaranthus rudis) and waterhemp_RES2 (ALS/HPPD resistant common waterhemp, Amaranthus rudis) were planted in pots containing a planting medium comprising spaghnum peat moss, vermiculite, wetting agent and starter nutrients treated with postemergence applications of some of the test chemicals formulated in the same manner. Plants ranged in height from 2 to 18 cm for postemergence treatments (1- to 4-leaf stage).
(§2) Treated plants and controls were maintained in a greenhouse for 14 to 21 days, after which time all species were compared to controls and visually evaluated. Plant response ratings, summarized in Table E, are based on a scale of 0 to 100 where 0 is no effect and 100 is complete control. A dash (-) response means no test result.

[2] = test system: dayflower, VA (Virginia (VA) dayflower, Commelina virginica); assay: Test F pre-/postemergence: dayflower, VA
From the text: as §1, §2

[3] = test system: foxtail, giant (giant foxtail, Setaria faberii); assay: Test F pre-/postemergence: foxtail, giant; conditions: Preemergence
From the text: as §1, §2

[4] = test system: foxtail, green (green foxtail Setaria viridis); assay: Test F pre-/postemergence: foxtail, green; conditions: Preemergence
From the text: as §1, §2

[5] = test system: barnyardgrass (Echinochloa crus-galli); assay: Test F pre-/postemergence: barnyardgrass
From the text: as §1, §2

[6] = test system: ryegrass, Italian (Italian ryegrass, Lolium multiflorum); assay: Test E pre-/postemergence: ryegrass, Italian; conditions: scale 0 to 100
From the text: (§3) Seeds of plant species selected from corn (Zea mays), soybean (Glycine max), velvetleaf (Abutilon theophrasti), lambsquarters (Chenopodium album), poinsettia, wild (wild poinsettia, Euphorbia heterophylla), pigweed, palmer (palmer pigweed, Amaranthus palmeri), waterhemp (common waterhemp, Amaranthus rudis), smartweed (ladysthumb smartweed, Polygonum persicaria), surinam grass (Brachiaria decumbens), crabgrass, large (large crabgrass, Digitaria sanguinalis), crabgrass, Brazil (Brazilian crabgrass, Digitaria horizontalis), panicum, fall (fall panicum, Panicum dichotomiflorum), foxtail, giant (giant foxtail, Setaria faberii), foxtail, green (green foxtail, Setaria viridis), goosegrass (Eleusine indica), johnsongrass (Sorghum halepense), ragweed (common ragweed, Ambrosia elation), barnyardgrass (Echinochloa crus-galli), sandbur (southern sandbur, Cenchrus echinatus), arrowleaf sida (Sida rhombifolia), ryegrass, Italian (Italian ryegrass, Lolium multiflorum), dayflower, (VA) (Virginia dayflower, Commelina virginica), field bindweed (Convolvulus arvensis), cocklebur (common cocklebur, Xanthium strumarium), morningglory (Ipomoea coccinea), nightshade (eastern black nightshade, Solanum ptycanthum), kochia (Kochia scoparia), nutsedge, yellow (yellow nutsedge, Cyperus esculentus) and beggarticks (hairy beggarticks, Bidens pilosa) were planted into a silt loam soil and treated preemergence with test chemicals formulated in a non-phytotoxic solvent mixture which included a surfactant. At the same time, plants selected from these crop and weed species were planted in pots containing a growing medium comprising spaghnum peat moss, vermiculite, wetting agent and starter nutrients and treated with postemergence applications of some of the test chemicals formulated in the same manner. Plants ranged in height from 2 to 18 cm for postemergence treatments (1- to 4-leaf stage).
as §2

[7] = test system: surinam grass (Brachiaria decumbens); assay: Test E pre-/postemergence: surinam grass; conditions: Preemergence, scale 0 to 100
From the text: as §3, §2

[8] = test system: goosegrass (Eleusine indica); assay: Test E pre-/postemergence: goosegrass; conditions: Preemergence, scale 0 to 100
From the text: as §3, §2

[9] = test system: corn (Zea mays); assay: Test E pre-/postemergence: corn; conditions: scale 0 to 100
From the text: as §3, §2

[10] = Postemergence, 4 g ai/ha, scale 0 to 100
[11] = Postemergence, 8 g ai/ha, scale 0 to 100
[12] = Postemergence, 16 g ai/ha, scale 0 to 100
[13] = Postemergence, 31 g ai/ha, scale 0 to 100
[14] = Postemergence, 62 g ai/ha, scale 0 to 100
[15] = Preemergence, 4 g ai/ha, scale 0 to 100, 0 no effect, 100 complete control
[16] = Preemergence, 8 g ai/ha, scale 0 to 100, 0 no effect, 100 complete control
[17] = Preemergence, 16 g ai/ha, scale 0 to 100 (0 no effect, 100 complete control)
[18] = Preemergence, 31 g ai/ha, scale 0 to 100 (0 no effect, 100 complete control)
[19] = Preemergence, 62 g ai/ha, scale 0 to 100
[20] = 4 g ai/ha, scale 0 to 100, 0 no effect, 100 complete control
[21] = 8 g ai/ha, scale 0 to 100, 0 no effect, 100 complete control
[22] = 16 g ai/ha, scale 0 to 100 (0 no effect, 100 complete control)
[23] = 31 g ai/ha, scale 0 to 100 (0 no effect, 100 complete control)

Cc1nn(-c2ccc(C(F)(F)F)c(F)c2)nc1Cc1ccnc(C(F)(F)F)c1 [Compound 162]
Plant response rating, Panicum, Fall [1, 10]: 15
Plant response rating, Panicum, Fall [1, 11]: 20
Plant response rating, Panicum, Fall [1, 12]: 20
Plant response rating, Panicum, Fall [1, 13]: 25
Plant response rating, Panicum, Fall [1, 14]: 30
Plant response rating, Panicum, Fall [1, 15]: 0
Plant response rating, Panicum, Fall [1, 16]: 0
Plant response rating, Panicum, Fall [1, 17]: 100
Plant response rating, Panicum, Fall [1, 18]: 100
Plant response rating, Dayflower, VA [2, 10]: 5
Plant response rating, Dayflower, VA [2, 11]: 15
Plant response rating, Dayflower, VA [2, 12]: 20
Plant response rating, Dayflower, VA [2, 13]: 20
Plant response rating, Dayflower, VA [2, 14]: 25
Plant response rating, Dayflower, VA [2, 15]: 0
Plant response rating, Dayflower, VA [2, 16]: 35
Plant response rating, Dayflower, VA [2, 17]: 35
Plant response rating, Dayflower, VA [2, 18]: 35
Plant response rating, Dayflower, VA [2, 19]: 65
Plant response rating, Foxtail, Giant [3, 20]: 0
Plant response rating, Foxtail, Giant [3, 21]: 20
Plant response rating, Foxtail, Giant [3, 22]: 70
Plant response rating, Foxtail, Giant [3, 23]: 100
Plant response rating, Foxtail, Giant ([3]; 62 g ai/ha, scale 0 to 100): 100
Plant response rating, Foxtail, Green [4, 20]: 0
Plant response rating, Foxtail, Green [4, 21]: 15
Plant response rating, Foxtail, Green [4, 22]: 80
Plant response rating, Foxtail, Green [4, 23]: 100
Plant response rating, Foxtail, Green ([4]; 62 g ai/ha, scale 0 to 100): 100
Plant response rating, Barnyardgrass [5, 10]: 10
Plant response rating, Barnyardgrass [5, 11]: 10
Plant response rating, Barnyardgrass [5, 12]: 10
Plant response rating, Barnyardgrass [5, 13]: 25
Plant response rating, Barnyardgrass [5, 14]: 35
Plant response rating, Barnyardgrass [5, 15]: 0
Plant response rating, Barnyardgrass [5, 16]: 20
Plant response rating, Barnyardgrass [5, 17]: 20
Plant response rating, Barnyardgrass [5, 18]: 30
Plant response rating, Barnyardgrass [5, 19]: 30

Cc1nn(-c2ccc(C(F)(F)F)cc2)nc1Cc1ccnc(C(F)(F)F)c1 [Compound 47, 4-[[5-methyl-2-[4-(trifluoromethyl)phenyl]-2H-1,2,3-triazol-4-yl]methyl]-2-(trifluoromethyl)pyridine]
Plant response rating: Ryegrass, Italian ([6]; Postemergence, 250 g ai/ha): 80
Plant response rating: Ryegrass, Italian ([6]; Postemergence, 16 g ai/ha): 10
Plant response rating: Ryegrass, Italian ([6]; Postemergence, 31 g ai/ha): 20
Plant response rating: Ryegrass, Italian ([6]; Postemergence, 62 g ai/ha): 30
Plant response rating: Ryegrass, Italian ([6]; Postemergence, 125 g ai/ha): 50
Plant response rating: Ryegrass, Italian ([6]; Preemergence, 16 g ai/ha): 20
Plant response rating: Ryegrass, Italian ([6]; Preemergence, 31 g ai/ha): 40
Plant response rating: Ryegrass, Italian ([6]; Preemergence, 62 g ai/ha): 70
Plant response rating: Ryegrass, Italian ([6]; Preemergence, 125 g ai/ha): 100
Plant response rating: Ryegrass, Italian ([6]; Preemergence, 250 g ai/ha): 100
Plant response rating: Surinam Grass ([7]; 16 g ai/ha): 15
Plant response rating: Surinam Grass ([7]; 31 g ai/ha): 20
Plant response rating: Surinam Grass ([7]; 62 g ai/ha): 25
Plant response rating: Surinam Grass ([7]; 125 g ai/ha): 40
Plant response rating: Surinam Grass ([7]; 250 g ai/ha): 65
Plant response rating: Goosegrass ([8]; 16 g ai/ha): 100
Plant response rating: Goosegrass ([8]; 31 g ai/ha): 100
Plant response rating: Goosegrass ([8]; 125 g ai/ha): 100
Plant response rating: Goosegrass ([8]; 250 g ai/ha): 100
Plant response rating: Corn ([9]; Postemergence, 250 g ai/ha): 20
Plant response rating: Corn ([9]; Postemergence, 16 g ai/ha): 10
Plant response rating: Corn ([9]; Postemergence, 31 g ai/ha): 15
Plant response rating: Corn ([9]; Postemergence, 62 g ai/ha): 20
Plant response rating: Corn ([9]; Postemergence, 125 g ai/ha): 20
Plant response rating: Corn ([9]; Preemergence, 16 g ai/ha): 0
Plant response rating: Corn ([9]; Preemergence, 31 g ai/ha): 15
Plant response rating: Corn ([9]; Preemergence, 62 g ai/ha): 20
Plant response rating: Corn ([9]; Preemergence, 125 g ai/ha): 20
Plant response rating: Corn ([9]; Preemergence, 250 g ai/ha): 25
